These are literature values, as cited in patent publication US20170266293A1, “METHODS OF TREATING CANCERS WITH THERAPEUTIC NANOPARTICLES” (PFIZER INC., priority 2011, published 2017).

The data set deals with cholangiocarcinoma. The note with it: previous studies, Pazdur, Am. J. Clin. Oncol. 1999.

For the molecule `CC(=O)O[C@@]12CO[C@@H]1C[C@H](O)[C@@]1(C)C(=O)[C@H](O)C3=C(C)[C@@H](OC(=O)[C@H](O)[C@@H](NC(=O)OC(C)(C)C)c4ccccc4)C[C@@](O)([C@@H](OC(=O)c4ccccc4)[C@H]21)C3(C)C` [docetaxel], the “Efficacy for the treatment of cholangiocarcinoma” value is listed as “ineffective”.
